# According to patent US10314877B2, “Method for lymph drainage” (ABOCA S.P.A. SOCIETÀ AGRICOLA, priority 2015, dated 2019):
# Experiments:
# [1] = test system: Human Dermal Lymphatic Endothelial Cells (HDLEC); experiment: Vascular (endothelial) permeability test, FITC-dextran passage through lymphatic endothelial monolayer; format: cell-based; conditions: IL-1β 10 ng/ml 1 h, no extract
# Procedure: In box A of FIG. 1 what is shown is the model in which lymphatic or hematic endothelial cells are measured in culture on a semi-permeable membrane, with presence of culture medium above and below said membrane, so as to allow the passage of components present in the medium when the cells are not strictly linked to one another, and FITCH-dextran molecules are inserted in the culture medium above the cells.
# Quantification by means of fluorescence of the FITC-dextran complex provides a measure of the permeability of the endothelium. […]
# The authors have therefore used a model, shown schematically in FIG. 1, to study the effects of various plant extracts on endothelia of blood or lymphatic vessels. […] The degree of permeability has been determined by way of experiment by measuring the amount of fluorescent probe that crosses the endothelial barrier separating the two compartments representing, respectively, the lumen of the vessel (above the semi-permeable membrane) and the interstice (below the semi-permeable membrane). […]
# The samples were assessed in 2-3 concentrations vs. vehicle alone on the cell cultures, untreated and treated with IL1beta (10 ng/ml), to understand if they have any effect in themselves on undamaged cells and if the tested substances are able to reverse the rise in permeability induced by IL1beta. […]
# [2] = test system: occludin and ZO-1 in confluent HDLEC and HDBEC cells; experiment: Immunofluorescence analysis of tight junction proteins occludin and ZO-1; format: cell-based, human; conditions: IL-1beta alone 10 ng/ml, 1 hour
# Procedure: FIG. 11 reports the data of immunofluorescence analyses of occludin (upper boxes) and of the protein ZO-1 (lower boxes) in confluent HDLEC (A) and HDBEC (B) cells treated with the following stimuli: no stimulus, IL-1beta alone (10 ng/ml, 1 hour), mixture of the invention alone (10 micrograms/ml 18 hours); mixture of the invention (18 hours)+IL-1beta (1 hour). The confocal images were taken with 60× enlargement, the scale bar=10 micrometers.
# Occludin and ZO-1 were assessed as markers representative of tight endothelial junctions. The confluent cells express these markers, whereas they are reduced following treatment with IL-1beta.
# The proteins of occluding tight junction and zona occludens 1 (ZO-1) expressed on the cell surface were visualised using confocal analysis. The cells were plated 5×10^4 on 1 cm circular glass slides. After 24 hours the cells were washed and treated with the mentioned stimulants. The immunofluorescence analysis was carried out as reported in the materials and methods of Monti et al, Pharmacol Res 2013; 76:171-81.
substance,measurement,setting,value
"IL-1β: interleukin beta, inflammatory agent used to raise endothelial permeability",permeability of endothelial cells treated with IL-1β alone (healthy cells = 100%),[1],approximately 160%
same,tight junction markers occludin and ZO-1,[2],reduced
